Source: patent US20210238225A1, “PEPTIDOMIMETIC INHIBITORS OF THE PEPTIDYL-PROLYL CIS/TRANS ISOMERASE (PIN1)” (DANA-FARBER CANCER INSTITUTE, INC., priority 2018, published 2021)
Like-named read-outs stand apart in the source and are kept apart here. Non-standard residues stand in square brackets, D forms with d. Residues, ends and D or L forms follow the SMILES beside them. *: point of attachment. Phe(F5) = N[C@@H](Cc1c(F)c(F)c(F)c(F)c1F)C(=O)O; Phe(3,5-F2) = N[C@@H](Cc1cc(F)cc(F)c1)C(=O)O; Ala(4-thiazolyl) = N[C@@H](Cc1cscn1)C(=O)O; Phe(2-Br) = N[C@@H](Cc1ccccc1Br)C(=O)O; Phe(4-F) = N[C@@H](Cc1ccc(F)cc1)C(=O)O; Bta = N[C@@H](Cc1csc2ccccc12)C(=O)O; NH(4-Me-benzyl) = Cc1ccc(CN*)cc1; NMeF = CN[C@@H](Cc1ccccc1)C(=O)O; hPhe = N[C@@H](CCc1ccccc1)C(=O)O; 3Thi = N[C@@H](Cc1ccsc1)C(=O)O; Cit = NC(=O)NCCC[C@H](N)C(=O)O; Pip = O=C(O)[C@@H]1CCCCN1; Piperidide = C1CCN(*)CC1; Acryloyl = C=CC(=O)*; NHcBu = C1CC(N*)C1; NHtBu = CC(C)(C)N*; X6 = CC(Cl)C(=O)*; ClAc = O=C(CCl)*

Target: Pin1 (GST-Pin1) (Homo sapiens, UniProt Q13526)
Sequence (Q13526 whole entry): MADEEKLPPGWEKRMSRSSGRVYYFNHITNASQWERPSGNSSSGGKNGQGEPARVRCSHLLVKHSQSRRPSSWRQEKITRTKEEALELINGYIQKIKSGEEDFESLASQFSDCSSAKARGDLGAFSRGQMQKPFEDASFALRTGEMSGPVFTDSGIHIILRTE
Experiment: Fluorescence polarization (FP) assay, binding to Pin1
Settings: competition with fluorescein-labeled peptide probe, 12 hours pre-incubation at 4° C., Kenakin Ki equation

Row | Structure (SMILES) | Ki (Ki, μM (FP Assay)) [µM] | Ki (read-out: Ki, μM (FP Assay)) [µM]
1 | COC(=O)CC[C@H](NC(=O)CCl)C(=O)N1CCCC[C@H]1C(=O)N[C@@H](Cc1csc2ccccc12)C(=O)N[C@@H](Cc1ccc(F)cc1)C(=O)NCc1ccc(C)cc1 [Compound 11-22, Methyl (S)-5-((S)-2-(((S)-3-(benzo[b]thiophen-3-yl)-1-(((S)-3-(4-fluorophenyl)-1-((4-methylbenzyl)amino)-1-oxopropan-2-yl)amino)-1-oxopropan-2-yl)carbamoyl)piperidin-1-yl)-4-(2-chloroacetamido)-5-oxopentanoate] (ClAc-E(OMe)[Pip][Bta][Phe(4-F)]-{NH(4-Me-benzyl)}) | > 10 | 
2 | COC(=O)CC[C@H](NC(=O)CCl)C(=O)N1CCCC[C@H]1C(=O)N[C@@H](Cc1c[nH]c2ccccc12)C(=O)N[C@@H](Cc1cc(F)cc(F)c1)C(=O)NCc1ccc(C)cc1 [Compound 11-24, Methyl (S)-4-(2-chloroacetamido)-5-((S)-2-(((S)-1-(((S)-3-(3,5-difluorophenyl)-1-((4-methyl-benzyl)amino)-1-oxopropan-2-yl)amino)-3-(1H-indol-3-yl)-1-oxopropan-2-yl)carbamoyl)piperidin-1-yl)-5-oxopentanoate] (ClAc-E(OMe)[Pip]W[Phe(3,5-F2)]-{NH(4-Me-benzyl)}) | > 10 | 
3 | COC(=O)CC[C@H](NC(=O)CCl)C(=O)N1CCCC[C@H]1C(=O)N[C@@H](Cc1c[nH]c2ccccc12)C(=O)N[C@@H](Cc1c(F)c(F)c(F)c(F)c1F)C(=O)NCc1ccc(C)cc1 [Compound 11-25, Methyl (S)-5-((S)-2-(((S)-3-(1H-indol-3-yl)-1-(((S)-1-((4-methylbenzyl)amino)-1-oxo-3-(perfluoro-phenyl)propan-2-yl)amino)-1-oxopropan-2-yl)carbamoyl)piperidin-1-yl)-4-(2-chloroacetamido)-5-oxopentanoate] (ClAc-E(OMe)[Pip]W[Phe(F5)]-{NH(4-Me-benzyl)}) | > 10 | 
4 | COC(=O)CC[C@H](NC(=O)CCl)C(=O)N1CCCC[C@H]1C(=O)N[C@@H](Cc1c[nH]c2ccccc12)C(=O)N[C@@H](Cc1ccccc1Br)C(=O)NCc1ccc(C)cc1 [Compound 11-27, Methyl (S)-5-((S)-2-(((S)-1-(((S)-3-(2-bromophenyl)-1-((4-methylbenzyl)amino)-1-oxopropan-2-yl)amino)-3-(1H-indol-3-yl)-1-oxopropan-2-yl)carbamoyl)piperidin-1-yl)-4-(2-chloroacetamido)-5-oxopentanoate] (ClAc-E(OMe)[Pip]W[Phe(2-Br)]-{NH(4-Me-benzyl)}) | > 10 | 
5 | COC(=O)CC[C@H](NC(=O)CCl)C(=O)N1CCCC[C@H]1C(=O)N[C@@H](Cc1c[nH]c2ccccc12)C(=O)N[C@@H](Cc1ccsc1)C(=O)NCc1ccc(C)cc1 [Compound 11-29, Methyl (S)-5-((S)-2-(((S)-3-(1H-indol-3-yl)-1-(((S)-1-((4-methylbenzyl)amino)-1-oxo-3-(thiophen-3-yl)propan-2-yl)amino)-1-oxopropan-2-yl)carbamoyl)piperidin-1-yl)-4-(2-chloroacetamido)-5-oxopentanoate] (ClAc-E(OMe)[Pip]W[3Thi]-{NH(4-Me-benzyl)}) | 1.01 | 
6 | COC(=O)CC[C@H](NC(C)=O)C(=O)N1CCCC[C@H]1C(=O)N[C@@H](Cc1c[nH]c2ccccc12)C(=O)N[C@@H](Cc1ccc(F)cc1)C(=O)NCc1ccc(C)cc1 [Compound 11-30, Methyl (S)-4-acetamido-5-((S)-2-(((S)-1-(((S)-3-(4-fluorophenyl)-1-((4-methylbenzyl)-amino)-1-oxopropan-2-yl)amino)-3-(1H-indol-3-yl)-1-oxopropan-2-yl)carbamoyl)piperidin-1-yl)-5-oxopentanoate] (Ac-E(OMe)[Pip]W[Phe(4-F)]-{NH(4-Me-benzyl)}) |  | > 10
7 | CC(C)(C)NC(=O)[C@H](CCCNC(N)=O)NC(=O)[C@H](Cc1c[nH]c2ccccc12)NC(=O)[C@@H]1CCCCN1C(=O)[C@H](Cc1ccccc1)NC(=O)CCl [Compound 11-31, (S)—N—((S)-1-(((S)-1-(tert-Butylamino)-1-oxo-5-ureidopentan-2-yl)amino)-3-(1H-indol-3-yl)-1-oxopropan-2-yl)-1-((2-chloroacetyl)-L-phenylalanyl)piperidine-2-carboxamide] (ClAc-F[Pip]W[Cit]-NHtBu) |  | 0.023
8 | Cc1ccc(CNC(=O)[C@H](Cc2cscn2)NC(=O)[C@H](Cc2c[nH]c3ccccc23)NC(=O)[C@@H]2CCCCN2C(=O)[C@H](Cc2ccccc2)NC(=O)CCl)cc1 [Compound 11-32, (S)—N—((S)-3-(1H-Indol-3-yl)-1-(((S)-1-((4-methylbenzyl)amino)-1-oxo-3-(thiazol-4-yl)propan-2-yl)amino)-1-oxopropan-2-yl)-1-((2-chloroacetyl)-L-phenylalanyl)piperidine-2-carboxamide] (ClAc-F[Pip]W[Ala(4-thiazolyl)]-{NH(4-Me-benzyl)}) |  | 0.121
9 | Cc1ccc(CNC(=O)[C@H](CCCNC(N)=O)NC(=O)[C@H](Cc2csc3ccccc23)NC(=O)[C@@H]2CCCCN2C(=O)[C@H](Cc2ccccc2)NC(=O)CCl)cc1 [Compound 11-33, (S)—N—((S)-3-(benzo[6]thiophen-3-yl)-1-(((S)-1-((4-methylbenzyl)amino)-1-oxo-5-ureidopentan-2-yl)amino)-1-oxopropan-2-yl)-1-((2-chloroacetyl)-L-phenylalanyl)-piperidine-2-carboxamide] (ClAc-F[Pip][Bta][Cit]-{NH(4-Me-benzyl)}) |  | 0.028
10 | Cc1ccc(CNC(=O)[C@H](CCCNC(N)=O)NC(=O)[C@H](Cc2c[nH]c3ccccc23)NC(=O)[C@@H]2CCCCN2C(=O)[C@H](Cc2ccccc2)NC(=O)C(C)Cl)cc1 (stereo partly drawn) [Compound 11-34, (2S)—N—((S)-3-(1H-indol-3-yl)-1-(((S)-1-((4-methylbenzyl)amino)-1-oxo-5-ureidopentan-2-yl)amino)-1-oxopropan-2-yl)-1-((2-chloropropanoyl)-L-phenylalanyl)piperidine-2-carboxamide] (X6-F[Pip]W[Cit]-{NH(4-Me-benzyl)}) |  | > 10
11 | C=CC(=O)N[C@@H](Cc1ccccc1)C(=O)N1CCCC[C@H]1C(=O)N[C@@H](Cc1c[nH]c2ccccc12)C(=O)N[C@@H](CCCNC(N)=O)C(=O)NCc1ccc(C)cc1 [Compound 11-35, (S)—N—((S)-3-(1H-indol-3-yl)-1-(((S)-1-((4-methylbenzyl)amino)-1-oxo-5-ureidopentan-2-yl)amino)-1-oxopropan-2-yl)-1-(acryloyl-L-phenylalanyl)piperidine-2-carboxamide] (Acryloyl-F[Pip]W[Cit]-{NH(4-Me-benzyl)}) |  | > 10
12 | CC(=O)N[C@@H](Cc1ccccc1)C(=O)N1CCCC[C@H]1C(=O)N[C@@H](Cc1c[nH]c2ccccc12)C(=O)N[C@@H](CCCNC(N)=O)C(=O)NCc1ccc(C)cc1 [Compound 11-36, (S)—N—((S)-3-(1H-Indol-3-yl)-1-(((S)-1-((4-methylbenzyl)amino)-1-oxo-5-ureidopentan-2-yl)amino)-1-oxopropan-2-yl)-1-(acetyl-L-phenylalanyl)piperidine-2-carboxamide] (Ac-F[Pip]W[Cit]-{NH(4-Me-benzyl)}) |  | > 10
13 | NC(=O)NCCC[C@H](NC(=O)[C@H](Cc1c[nH]c2ccccc12)NC(=O)[C@@H]1CCCCN1C(=O)[C@H](Cc1ccccc1)NC(=O)CCl)C(=O)NC1CCC1 [Compound 11-37, (S)-1-((2-Chloroacetyl)-L-phenylalanyl)-N—((S)-1-(((S)-1-(cyclobutylamino)-1-oxo-5-ureidopentan-2-yl)amino)-3-(1H-indol-3-yl)-1-oxopropan-2-yl)piperidine-2-carboxamide] (ClAc-F[Pip]W[Cit]-NHcBu) |  | 0.026
14 | NC(=O)NCCC[C@H](NC(=O)[C@H](Cc1c[nH]c2ccccc12)NC(=O)[C@@H]1CCCCN1C(=O)[C@H](CCc1ccccc1)NC(=O)CCl)C(=O)N1CCCCC1 [Compound 11-40, (S)—N—((S)-3-(1H-Indol-3-yl)-1-oxo-1-(((S)-1-oxo-1-(piperidin-1-yl)-5-ureidopentan-2-yl)amino)propan-2-yl)-1-((S)-2-(2-chloroacetamido)-4-phenylbutanoyl)piperidine-2-carboxamide] (ClAc-[hPhe][Pip]W[Cit]-Piperidide) | 0.087 | 
15 | O=C(CCl)N[C@@H](Cc1ccccc1)C(=O)N1CCCC[C@H]1C(=O)N[C@@H](Cc1c[nH]c2ccccc12)C(=O)N[C@@H](Cc1ccccc1)C(=O)N1CCCCC1 [Compound 11-41, (S)—N—((S)-3-(1H-Indol-3-yl)-1-oxo-1-(((S)-1-oxo-3-phenyl-1-(piperidin-1-yl)propan-2-yl)amino)propan-2-yl)-1-((2-chloroacetyl)-L-phenylalanyl)piperidine-2-carboxamide] (ClAc-F[Pip]WF-Piperidide) |  | 0.151
16 | CN(C(=O)CCl)[C@@H](Cc1ccccc1)C(=O)N1CCCC[C@H]1C(=O)N[C@@H](Cc1csc2ccccc12)C(=O)N[C@@H](CCCNC(N)=O)C(=O)N1CCCCC1 [Compound 11-42, (S)—N—((S)-3-(Benzo[6]thiophen-3-yl)-1-oxo-1-(((S)-1-oxo-1-(piperidin-1-yl)-5-ureidopentan-2-yl)amino)propan-2-yl)-1-(N-(2-chloroacetyl)-N-methyl-L-phenylalanyl)piperidine-2-carboxamide] (ClAc-[NMeF][Pip][Bta][Cit]-Piperidide) |  | 0.109
17 | CN(C(=O)CCl)[C@@H](Cc1ccccc1)C(=O)N1CCCC[C@H]1C(=O)N[C@@H](Cc1c[nH]c2ccccc12)C(=O)N[C@@H](Cc1ccc(F)cc1)C(=O)N1CCCCC1 [Compound 11-43, (S)-1-(N-(2-Chloroacetyl)-N-methyl-L-phenylalanyl)-N—((S)-1-(((S)-3-(4-fluorophenyl)-1-oxo-1-(piperidin-1-yl)propan-2-yl)amino)-3-(1H-indol-3-yl)-1-oxopropan-2-yl)piperidine-2-carboxamide] (ClAc-[NMeF][Pip]W[Phe(4-F)]-Piperidide) |  | 0.172
18 | CN(C(=O)CCl)[C@@H](Cc1ccccc1)C(=O)N1CCCC[C@H]1C(=O)N[C@@H](Cc1c[nH]c2ccccc12)C(=O)N[C@@H](CCc1ccccc1)C(=O)N1CCCCC1 [Compound 11-44, (S)—N—((S)-3-(1H-Indol-3-yl)-1-oxo-1-(((S)-1-oxo-4-phenyl-1-(piperidin-1-yl)butan-2-yl)amino)propan-2-yl)-1-(N-(2-chloroacetyl)-N-methyl-L-phenylalanyl)piperidine-2-carboxamide] (ClAc-[NMeF][Pip]W[hPhe]-Piperidide) |  | 1.5
